From patent US11142524B2, “Substituted-3H-imidazo[4,5-c]pyridine and 1H-pyrrolo[2,3-c]pyridine series of novel Ectonucleotide Pyrophosphatase/Phosphodiesterase-1 (ENPP1) and stimulator for interferon genes (STING) modulators as cancer immunotherapeutics” (Stingray Therapeutics, Inc., priority 2018, dated 2021) come the findings set out here.

As usually defined, the IC50 is the concentration that gives 50% inhibition.

Read-outs that look alike come from different tables or passages of the source.

Assay [1] concerns the target T1, ENPP1 protein (Homo sapiens (Human), UniProt P22413). Put plainly: ENPP1 Inhibition Assay (thymidine 5′-monophosphate p-nitrophenol ester substrate). It counts as biochemical. The procedure:
Assay Buffer: 1 mM CaCl2, 0.2 mM ZnCl2, 50 mM Tris, pH 9.0. Substrate: 8 mM Thymidine 5′-monophosphate p-nitrophenol ester sodium salt (Sigma Cat #T4510). Enzyme: 5 ng/L Recombinant Human ENPP-1 Protein (R&D Cat #6136-EN-010) in DMSO in 96-well clear assay plates
(§1) An eight point serial dilution of drugs was prepared in 10× in assay buffer with the final assay concentrations starting at 10 μM, 3 μM, 1 μM, 0.3 μM . . . 0 μM. A dilution of DMSO was included as a control. The assay plate was set up as follows with each well in duplicate: 81 μL assay buffer+10 μL ENPP1 inhibitor or DMSO+5 μL Substrate+4 μL Enzyme. Both the enzyme and substrate were added to opposite sides of the well to ensure that there was no interaction until all wells had both components. The plate was then centrifuged gently for 10 seconds, followed by an incubation at 37° C. for 45 minutes. The reaction was quantified by measuring absorbance at 405 nm using the Envision.
(§2) IC50 values are determined using GraphPad Prism 5 software. The data were entered as an X-Y plot into the software as percent inhibition for each concentration of the drug. The concentration values of the drug were log transformed and the nonlinear regression was carried out using the “sigmoidal dose-response (variable slope)” option within the GraphPad software to model the data and calculate IC50 values. The IC50 values reported are the concentration of drug at which 50% inhibition was reached.
Target sequence in this assay (P22413 whole entry, looked up, change not shown): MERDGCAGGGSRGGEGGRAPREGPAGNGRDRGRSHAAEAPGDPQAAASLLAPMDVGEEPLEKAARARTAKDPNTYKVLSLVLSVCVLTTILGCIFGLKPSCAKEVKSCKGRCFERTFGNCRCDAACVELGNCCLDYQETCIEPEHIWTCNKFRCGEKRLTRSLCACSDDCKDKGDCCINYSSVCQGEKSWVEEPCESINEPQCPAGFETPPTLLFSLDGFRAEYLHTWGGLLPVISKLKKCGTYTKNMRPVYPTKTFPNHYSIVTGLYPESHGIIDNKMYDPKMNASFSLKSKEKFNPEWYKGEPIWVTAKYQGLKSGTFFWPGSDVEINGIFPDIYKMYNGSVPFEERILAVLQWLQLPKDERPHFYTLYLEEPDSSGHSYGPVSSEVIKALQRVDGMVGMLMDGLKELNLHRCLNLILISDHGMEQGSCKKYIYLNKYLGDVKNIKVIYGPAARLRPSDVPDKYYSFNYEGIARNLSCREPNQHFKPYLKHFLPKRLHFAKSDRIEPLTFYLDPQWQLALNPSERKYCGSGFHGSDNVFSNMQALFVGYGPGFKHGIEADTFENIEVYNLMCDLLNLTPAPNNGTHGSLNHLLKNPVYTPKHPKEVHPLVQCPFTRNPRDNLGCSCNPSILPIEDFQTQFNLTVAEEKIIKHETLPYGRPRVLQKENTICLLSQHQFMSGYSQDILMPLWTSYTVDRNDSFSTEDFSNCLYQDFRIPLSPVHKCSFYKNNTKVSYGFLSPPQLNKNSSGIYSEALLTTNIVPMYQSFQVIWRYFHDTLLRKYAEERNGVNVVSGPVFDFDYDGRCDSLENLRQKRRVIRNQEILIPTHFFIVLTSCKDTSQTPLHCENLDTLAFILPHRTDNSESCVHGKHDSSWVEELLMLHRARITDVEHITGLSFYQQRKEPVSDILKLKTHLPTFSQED

Assay [2] concerns the target Recombinant Human ENPP-2/Autotaxin Protein (Homo sapiens (Human), UniProt Q13822). The assay is described as follows: ENPP2 Inhibition Assay. The class given is biochemical. The procedure:
Assay Buffer: 10 mM CaCl2, 5 mM MgCl2, 50 mM Tris, 0.02% Brij-35, pH 8.5. Substrate: 2 mM Bis(p-Nitrophenyl) Phosphate Sodium Salt (Sigma Cat # N3002). Enzyme: 0.2 ng/μL Recombinant Human ENPP-2/Autotaxin Protein (R&D Cat #5255-EN), PF-3080 in DMSO in 96-well clear assay plates
as §1, with “15” for “81”, “DMSO+50” for “DMSO+5”, “Substrate+25” for “Substrate+4”
as §2

Assay [3] concerns the target T1, ENPP1 protein. Put plainly: ENPP1 enzymatic assay with TMP substrate (FIG. 8). Conditions: 5.0 ng ENPP1, 150 μM TMP substrate. It counts as biochemical. The procedure:
FIG. 8 depicts results of a similar experiment. 5.0 ng of ENPP1 protein exposed to increasing doses of inhibitor (compound 78 or compound 107-02) for 10 minutes in solution, followed by the addition of 150 μM of TMP substrate. The assay was then incubated for 20 minutes and then read at 405 nm on the envision plate reader.
Target sequence in this assay (P22413 whole entry, looked up): as the sequence (P22413 whole entry, looked up, change not shown) above

For assay [4], the target named is Recombinant Human ENPP-1 Protein (purified in-house) (Homo sapiens (Human), UniProt P22413). Put plainly: ENPP1 Assay (ATP), Example 2. It counts as biochemical. How it is done: Assay Buffer: 1 mM CaCl2, 0.2 mM ZnCl2, 50 mM Tris, pH 9.0. Substrate: 100 μM Adenosine 5′-triphosphate disodium salt hydrate (Promega: V703A)—Assay Conc.: 10 μM. Enzyme: 1 ng/μL Recombinant Human ENPP-1 Protein (purified in-house)—Assay Conc.: 5 ng/well of DMSO in 96-well white assay plates. Cell Titer Glo (Promega, cat #G7572).
Sequence of Recombinant Human ENPP-1 Protein (purified in-house) (P22413 whole entry, looked up): as the sequence (P22413 whole entry, looked up, change not shown) above
A ten point serial dilution of drugs was prepared in 10× in assay buffer with the final assay concentrations starting at 10 μM, 3 μM, 1 μM, 0.3 μM . . . 0 μM. A dilution of DMSO was included as a control. The assay plate was set up as follows with each well in duplicate: 75 μL assay buffer+10 μL ENPP1 inhibitor or DMSO Dilutions+10 μL Substrate+5 μL Enzyme (5 ng). Both the enzyme and substrate were added to opposite sides of the well to ensure that there was no interaction until all wells had both components. The plate was then centrifuged gently for 10 seconds, followed by incubation at RT for 20 minutes. To detect levels of ATP, Cell Titer Glo was added 1:1 to each well and incubated for 10 minutes. The reaction was quantified by measuring luminescence using the Envision Plate Reader.

In assay [5] the test system is UWB1.289. The assay is described as follows: Chou-Talalay Synergy Study with Olaparib, UWB1.289. The class given is cell-based. Conditions: UWB1.289, 72 hours. How it is done: Cell Lines: MDA-MB-468 and UWB289.1 (ATCC). Cell Titer Glo (Promega cat #: G7572). 96-well TC treated, white assay plates
Cells were cultured according to ATCC tissue culture recommendations. Cells were plated in a 96-well tissue culture plate at a density of 1500 cells/well and allowed to settle overnight. The following day, both drugs were prepared at 10× concentration in the following ratios (Compound 22:Olaparib): 1:1, 10:1, and 1:10. The drugs were serially diluted to create an 8-point dose curve and 10 μL of each drug was added to the cells for a total volume of 100 μL/well. Plates were placed in a tissue culture incubator for 72 hours. Following incubation, each plate was treated with Cell Titer Glo according to vendor recommendation and luminescence was measured with the Envision Plate Reader. Data was analyzed using CalcuSyn software according to the methods described in Chou, Drug combination studies and their synergy quantification using the Chou-Talalay method, Cancer Res. 2010 Jan. 15; 70(2):440-6.
A Combination index (CI) value greater than 1 indicates […], equal to 1 indicates additive and less than 1 indicates synergy.

Take `COc1ccc(NC(=O)CSc2nc3c(C)c(C#N)ncc3[nH]2)cc1O` [Compound 78, 2-((6-Cyano-7-methyl-3H-imidazo[4,5-c]pyridin-2-yl)thio)-N-(3-hydroxy-4-methoxyphenyl) acetamide]: the “inhibiting the activity of ENPP1” value in assay [1] (FIG. 1) is on record as “effective”. In addition, the IC50 is 79.7 nM in assay [1] (Table 1, FIG. 1, read-out: IC50); 0.0731 µM in assay [4] (FIG. 5B, ATP substrate, read-out: IC50); 0.116 µM in assay [4] (Table 5, ATP substrate, read-out: ENPP1 (IC50 μM) ATP). The “selective at inhibiting ENPP1 but not ENPP2” value in assay [2] was “selective”. In addition, the “inhibiting the activity of ENPP2” value in assay [2] (FIGS. 2A and 2B) is “ineffective”. Further, the enzymatic activity result in assay [3] is on record as “significant decrease”. Moreover, in assay [5], the “ED50 Drug Concentration Compound 78” value was determined as 48800 nM.
